Experimental data taken from paper PMC4383003, “Transfer hydrogenation catalysis in cells as a new approach to anticancer drug design” (Nature Communications, 2015).

Tests used:
calf thymus DNA = test: Interaction with calf thymus DNA (ethanol precipitation, ICP-MS of Ru); assay type: binding
Description: Interaction with calf thymus DNA
Complex 2 was chosen as representative of the series. A stock solution of complex 2 (0.7 mM in 5 % acetonitrile/water) was prepared and aliquots of 66 μL were added to a solution of CT-DNA (final ratio 1:3 complex: base pairs-DNA) in water, 2 mM cacodylate buffer and 2 mM NaCl. The reaction mixture was incubated at 310 K, and aliquots of 300 μL were taken at different intervals during a period of 27 h. The DNA was then precipitated by addition of ethanol (700 μL, final concentration 70% v/v). Ru complexes which are strongly bound to CT-DNA will precipitate together with the DNA upon addition of ethanol, and, therefore the ruthenium concentration in the supernatant should decrease. However, no changes in the Ru concentration were detected by ICP-MS showing that the interaction between the complex 2 and DNA is weak (t = 0 h / 64.2 ± 0.7 µM, t = 24 h/ 65.1 ± 0 .3 µM free Ru). In contrast complex 8

[1] = tested on: A2780 ovarian cancer cells; test: Ruthenium distribution in cancer cells (cell fractionation, ICP-MS); assay type: cell-based, human
Description: Cell pellets were obtained as described above, and were fractionated using the Fraction PREP kit from BioVision according to the supplier’s instructions. Each sample was digested overnight in concentrated nitric acid (73%) and the amount of Ru taken up by the cells was determined by ICP–MS. These experiments were all carried out in triplicate and the s.d. were calculated.
Supplementary Table 9: Cellular distribution of complex 2 (as % Ru) in A2780 ovarian cancer cells when co-administered with different concentrations of sodium formate (0 and 2 mM). All the experiments were performed as duplicates of triplicates in independent experiments and the error bars were calculated as the standard deviation from the mean.
Formate Cytosol Membrane Cytoskeleton Nuclei

A2780 cells = test: Induction of necrosis (7-ADD flow cytometry); assay type: cell-based, human; conditions: A2780, complex 2 in presence and absence of 2 mM sodium formate, 24 h
Description: Flow cytometry analysis of necrosis in A2780 cells caused by exposure to complex 2 and sodium formate was carried out using a Apotosis/Necrosis detection kit (Abcam) according to the manufacturer’s instructions. […] Cells were harvested using trypsin and stained using the membrane-impermeable nuclear dye 7-ADD (Ex/Em 546/647 nm). After staining in the dark, cell pellets were analysed in a Becton Dickinson FACScan Flow Cytometer. For positive-necrosis controls, A2780 cells were exposed to methanol.

[2] = A2780, complex 2 4.5 μM, presence and absence of formate (2 mM)

Compound: Cc1ccc(C(C)C)cc1.Cc1ccc(S(=O)(=O)[N-]CCN)cc1.[Cl-].[Ru+2] [Complex 2, [(p-cym)Ru(TsEn)Cl]]
- free Ru in supernatant (calf thymus DNA; CT-DNA, 1:3 complex:base pairs, 310 K, t = 0 h): 64.2 ± 0.7 µM
- binding to calf thymus DNA (calf thymus DNA; ICP-MS of Ru, up to 27 h at 310 K, 1:3 complex:DNA base pairs, 2 mM cacodylate pH 7.4, 2 mM NaCl): weak and no binding
- Ru in cytoskeletal fraction ([1]; A2780, complex 2 4.5 μM): little Ru
- Ru in cytosolic fraction [1, 2]: 51%
- Ru in membrane and organelle fraction [1, 2]: 38%
- Ru in nuclear fraction [1, 2]: 9%
- %Ru Cytoskeleton ([1]; A2780, formate 0 mM): 1.9 ± 0.5%
- %Ru Cytosol ([1]; A2780, formate 0 mM): 50.5 ± 2.4%
- %Ru Membrane ([1]; A2780, formate 0 mM): 41.6 ± 1.4%
- %Ru Nuclei ([1]; A2780, formate 0 mM): 6.0 ± 2.8%
- %Ru Cytoskeleton ([1]; A2780, formate 2 mM): 1.0 ± 0.8%
- %Ru Cytosol ([1]; A2780, formate 2 mM): 52.0 ± 3.0%
- %Ru Membrane ([1]; A2780, formate 2 mM): 35.7 ± 7.2%
- %Ru Nuclei ([1]; A2780, formate 2 mM): 11.3 ± 4.5%
- induction of necrosis (A2780 cells): no cellular necrosis
